These results are taken from paper PMC3448056, “2-Benzamido-N-(1H-benzo[d]imidazol-2-yl)thiazole-4-carboxamide derivatives as potent inhibitors of CK1δ/ε” (Amino Acids, 2012).

The IC50 is the midpoint of a concentration-inhibition curve.

Assay [1] deals with T1, CK1δkd (Rattus norvegicus, UniProt Q06486).
T1 construct: Recombinant CK1δ kinase domain (CK1δkd, NEB, Frankfurt am Main, Germany); purchased NEB, Frankfurt am Main, Germany
T1 sequence (Q06486 9-277 limits assumed): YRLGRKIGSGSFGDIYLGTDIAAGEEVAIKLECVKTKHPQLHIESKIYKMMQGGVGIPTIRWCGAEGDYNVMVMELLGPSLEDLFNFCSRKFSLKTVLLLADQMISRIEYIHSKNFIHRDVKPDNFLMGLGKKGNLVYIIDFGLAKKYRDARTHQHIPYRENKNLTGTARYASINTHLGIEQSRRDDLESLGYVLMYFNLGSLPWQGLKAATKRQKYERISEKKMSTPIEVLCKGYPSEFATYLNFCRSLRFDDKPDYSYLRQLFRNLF
The assay is described as follows: In vitro kinase assay, CK1δ kinase domain. Format: biochemical. The settings on record: for inhibition of CK1δkd in initial screen: inhibitor 10 μM, 10 μM ATP (Fig. 1a); for mode of inhibition: inhibitor at IC50 concentration, ATP 0.01-0.5 mM (Fig. 6).

The target of assay [2] is T2, GST-rat CK1δ^M82F (Rattus norvegicus, UniProt Q06486, M82F).
T2 construct: made in house; host or cells: bacteria (pGEX-2T)
T2 sequence (Q06486 1-415 M82F): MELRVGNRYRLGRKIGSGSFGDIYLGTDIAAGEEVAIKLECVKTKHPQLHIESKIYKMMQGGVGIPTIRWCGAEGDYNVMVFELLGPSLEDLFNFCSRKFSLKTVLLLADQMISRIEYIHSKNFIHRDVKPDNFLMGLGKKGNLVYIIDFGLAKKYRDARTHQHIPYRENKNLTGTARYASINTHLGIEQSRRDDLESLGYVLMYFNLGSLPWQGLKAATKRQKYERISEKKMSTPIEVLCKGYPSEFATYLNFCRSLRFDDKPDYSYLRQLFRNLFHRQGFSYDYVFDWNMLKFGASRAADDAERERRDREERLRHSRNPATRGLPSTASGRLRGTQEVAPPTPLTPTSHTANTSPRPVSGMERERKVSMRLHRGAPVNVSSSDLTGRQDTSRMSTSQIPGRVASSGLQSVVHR
Description: In vitro kinase assay, gatekeeper mutant. The settings on record: inhibitor at its determined IC50 concentration (Fig. 7). Format: biochemical. Here is the method:
For the expression of wt rat CK1δ and rat CK1δ^M82F as glutathione S-transferase fusion proteins the plasmids pGEX-2T-CK1δ (FP449) (Knippschild et al. [1997]) and pGEX-2T-CK1δ^M82F (FP1153) (Peifer et al. [2009]) were used.
Expression and purification of the GST-fusion proteins GST-mouse p53^1–64 (FP267), GST-rat CK1δ (FP449), GST-rat CK1δ^M82F (FP1153), GST-mouse CK1δTV1 (FP1170), and GST-mouse CK1δTV2 (FP1171) was carried out as described elsewhere (Wolff et al. [2005]). Expression of fusion proteins FP1170 and 1171 was either performed at 37°C for 2 h, or at 15°C for 14 h. FP449 and FP1153 were always expressed at 15°C for 14 h.
In vitro kinase assays were carried out in the presence of various potential inhibitors of CK1δ at an ATP concentration of 0.01 mM and dimethyl sulfoxide (DMSO) solvent control as described previously (Knippschild et al. [1996]). Where indicated higher ATP concentrations (0.05, 0.1, 0.25 and 0.5 mM) were used. The fusion protein GST-mouse p53^1−64 (FP267) was used as substrate. Recombinant CK1δ kinase domain (CK1δkd, NEB, Frankfurt am Main, Germany), GST-rat CK1δ (FP449), GST-rat CK1δ^M82F (FP1153), GST-mouse CK1δTV1, GST-mouse CK1δTV2 and recombinant human CK1ε (Invitrogen, Karlsruhe, Germany) were used as sources of enzyme. Phosphorylated proteins were separated by SDS-PAGE and the protein bands were visualized on dried gels by autoradiography. The phosphorylated protein bands were excised and quantified by Cherenkov counting.
Previously it has been shown that methionine 82 plays an important role as gatekeeper residue in the docking mode of isoxazoles to the ATP binding pocket since mutation of methionine 82 to phenylalanine blocks binding of this class of CK1δ specific inhibitors (Peifer et al. [2009]) while still binding ATP. Therefore, we now analyzed the effects of exchanging methionine 82 to phenylalanine on the ability of compounds 4, 5 and 6 to inhibit CK1δ activity.

For assay [3], the target named is T3, CLK2 (Homo sapiens, UniProt P49760).
T3 construct: purchased Ambit Biosciences Cooperation, San Diego, USA (KINOMEscan)
Description: KINOMEscan selectivity profiling. It is filed as binding. The settings on record: remaining relative to controls, read-out: %Ctrl @ 10 μM (CLK2). On the procedure:
(§1) KINOMEscan™ was performed to determine binding constants of coumpound 5 to 442 eukaryotic kinases by Ambit Biosciences Cooperation, San Diego, USA.

Assay [4] has as its target T4, CLK4 (Homo sapiens, UniProt Q9HAZ1).
T4 construct: purchased Ambit Biosciences Cooperation, San Diego, USA (KINOMEscan)
Description: KINOMEscan selectivity profiling. It is filed as binding. The settings on record: remaining relative to controls, read-out: %Ctrl @ 10 μM (CLK4). Here is the method: as §1

The target in assay [5] is T5, CSNK1A1 (Homo sapiens, UniProt P48729).
T5 construct: purchased Ambit Biosciences Cooperation, San Diego, USA (KINOMEscan)
T5 sequence (P48729 whole entry): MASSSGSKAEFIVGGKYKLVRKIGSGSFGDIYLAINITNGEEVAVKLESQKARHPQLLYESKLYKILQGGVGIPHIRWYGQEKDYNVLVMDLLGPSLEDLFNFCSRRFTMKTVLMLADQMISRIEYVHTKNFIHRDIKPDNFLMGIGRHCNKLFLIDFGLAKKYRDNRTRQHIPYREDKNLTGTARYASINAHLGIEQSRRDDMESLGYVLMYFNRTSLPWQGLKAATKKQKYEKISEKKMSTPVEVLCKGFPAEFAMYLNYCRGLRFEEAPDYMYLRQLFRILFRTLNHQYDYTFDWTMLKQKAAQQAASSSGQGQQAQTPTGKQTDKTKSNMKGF
Description: KINOMEscan selectivity profiling. Format: binding. The settings on record: remaining relative to controls, read-out: %Ctrl @ 10 μM (CSNK1A1). On the procedure: as §1

The target of assay [6] is T6, CSNK1D (Homo sapiens, UniProt P48730).
T6 construct: purchased Ambit Biosciences Cooperation, San Diego, USA (KINOMEscan)
T6 sequence (P48730 whole entry): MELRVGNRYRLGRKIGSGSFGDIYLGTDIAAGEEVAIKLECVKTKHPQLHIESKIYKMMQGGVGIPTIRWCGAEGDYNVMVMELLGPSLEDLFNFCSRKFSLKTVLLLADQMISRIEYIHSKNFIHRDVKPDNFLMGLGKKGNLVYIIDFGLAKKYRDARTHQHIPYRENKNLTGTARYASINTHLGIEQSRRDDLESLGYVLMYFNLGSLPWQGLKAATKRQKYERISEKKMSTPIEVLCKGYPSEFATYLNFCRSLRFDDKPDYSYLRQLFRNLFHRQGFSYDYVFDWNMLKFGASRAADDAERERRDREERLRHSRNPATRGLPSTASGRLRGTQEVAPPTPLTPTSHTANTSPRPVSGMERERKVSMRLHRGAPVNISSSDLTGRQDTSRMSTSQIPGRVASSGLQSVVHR
The assay is described as follows: KINOMEscan selectivity profiling. It is filed as binding. The settings on record: remaining relative to controls, read-out: %Ctrl @ 10 μM (CSNK1D). On the procedure:
as §1

Assay [7] addresses T7, DYRK1A (Homo sapiens, UniProt Q13627).
T7 construct: purchased Ambit Biosciences Cooperation, San Diego, USA (KINOMEscan)
The assay is described as follows: KINOMEscan selectivity profiling. It is filed as binding. The settings on record: remaining relative to controls, read-out: %Ctrl @ 10 μM (DYRK1A). Here is the method: as §1

For assay [8], the target named is T8, DYRK1B (Homo sapiens, UniProt Q9Y463).
T8 construct: purchased Ambit Biosciences Cooperation, San Diego, USA (KINOMEscan)
T8 sequence (Q9Y463 whole entry): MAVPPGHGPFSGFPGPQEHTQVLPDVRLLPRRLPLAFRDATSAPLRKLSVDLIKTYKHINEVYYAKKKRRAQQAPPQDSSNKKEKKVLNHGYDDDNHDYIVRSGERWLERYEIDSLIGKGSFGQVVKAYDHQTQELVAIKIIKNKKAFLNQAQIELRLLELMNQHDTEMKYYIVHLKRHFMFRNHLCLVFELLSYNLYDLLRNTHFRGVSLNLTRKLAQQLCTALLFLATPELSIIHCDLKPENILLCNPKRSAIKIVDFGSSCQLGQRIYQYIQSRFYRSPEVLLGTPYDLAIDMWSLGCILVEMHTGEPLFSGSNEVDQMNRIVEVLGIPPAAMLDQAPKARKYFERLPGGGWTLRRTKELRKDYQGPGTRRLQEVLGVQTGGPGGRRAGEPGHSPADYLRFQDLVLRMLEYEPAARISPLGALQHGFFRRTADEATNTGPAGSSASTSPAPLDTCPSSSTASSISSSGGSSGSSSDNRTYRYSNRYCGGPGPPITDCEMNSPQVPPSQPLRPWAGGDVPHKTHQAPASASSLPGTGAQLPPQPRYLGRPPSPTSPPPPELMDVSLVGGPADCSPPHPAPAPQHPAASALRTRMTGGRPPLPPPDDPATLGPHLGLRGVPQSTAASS
Description: KINOMEscan selectivity profiling. It is filed as binding. The settings on record: remaining relative to controls, read-out: %Ctrl @ 10 μM (DYRK1B). On the procedure:
as §1

The target of assay [9] is T9, DYRK2 (Homo sapiens, UniProt Q92630).
T9 construct: purchased Ambit Biosciences Cooperation, San Diego, USA (KINOMEscan)
T9 sequence (Q92630 whole entry): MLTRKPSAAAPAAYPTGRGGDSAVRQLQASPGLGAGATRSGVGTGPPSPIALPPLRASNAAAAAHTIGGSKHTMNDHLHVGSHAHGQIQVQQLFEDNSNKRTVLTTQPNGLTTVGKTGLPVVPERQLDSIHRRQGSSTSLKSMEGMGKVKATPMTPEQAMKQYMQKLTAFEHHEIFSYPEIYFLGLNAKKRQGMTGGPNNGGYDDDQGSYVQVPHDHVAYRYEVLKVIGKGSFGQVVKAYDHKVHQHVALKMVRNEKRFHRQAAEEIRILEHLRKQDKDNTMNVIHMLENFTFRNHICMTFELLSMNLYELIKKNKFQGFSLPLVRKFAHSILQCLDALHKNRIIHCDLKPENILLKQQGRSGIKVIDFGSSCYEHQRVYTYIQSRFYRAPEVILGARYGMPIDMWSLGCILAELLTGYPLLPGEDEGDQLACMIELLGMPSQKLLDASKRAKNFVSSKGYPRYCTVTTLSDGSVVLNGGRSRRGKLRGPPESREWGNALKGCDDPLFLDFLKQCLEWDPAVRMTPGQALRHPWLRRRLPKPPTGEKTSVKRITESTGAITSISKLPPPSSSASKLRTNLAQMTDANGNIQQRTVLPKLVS
The assay is described as follows: KINOMEscan selectivity profiling. Format: binding. The settings on record: remaining relative to controls, read-out: %Ctrl @ 10 μM (DYRK2). Here is the method:
as §1

Assay [10] deals with T10, IRAK3 (Homo sapiens, UniProt Q9Y616).
T10 construct: purchased Ambit Biosciences Cooperation, San Diego, USA (KINOMEscan)
T10 sequence (Q9Y616 whole entry): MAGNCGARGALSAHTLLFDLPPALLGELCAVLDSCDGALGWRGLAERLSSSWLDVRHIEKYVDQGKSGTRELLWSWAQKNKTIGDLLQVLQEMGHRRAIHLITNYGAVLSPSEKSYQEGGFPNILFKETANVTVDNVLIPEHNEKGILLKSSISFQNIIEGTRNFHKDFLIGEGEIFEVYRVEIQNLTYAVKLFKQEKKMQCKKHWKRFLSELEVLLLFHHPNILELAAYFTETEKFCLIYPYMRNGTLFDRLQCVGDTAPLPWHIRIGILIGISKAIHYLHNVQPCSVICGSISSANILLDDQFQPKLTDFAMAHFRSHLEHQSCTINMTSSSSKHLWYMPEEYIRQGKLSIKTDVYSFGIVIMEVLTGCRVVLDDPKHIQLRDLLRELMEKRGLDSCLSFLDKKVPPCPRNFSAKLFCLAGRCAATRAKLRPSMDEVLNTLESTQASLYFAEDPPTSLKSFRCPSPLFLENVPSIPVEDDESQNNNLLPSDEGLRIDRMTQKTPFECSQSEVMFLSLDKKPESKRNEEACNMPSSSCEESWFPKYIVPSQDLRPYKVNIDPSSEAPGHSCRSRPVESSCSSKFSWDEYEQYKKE
Description: KINOMEscan selectivity profiling. Format: binding. The settings on record: remaining relative to controls, read-out: %Ctrl @ 10 μM (IRAK3). Here is the method:
as §1

In assay [11] the target is T11, SLK (Homo sapiens, UniProt Q9H2G2).
T11 construct: purchased Ambit Biosciences Cooperation, San Diego, USA (KINOMEscan)
Description: KINOMEscan selectivity profiling. It is filed as binding. The settings on record: remaining relative to controls, read-out: %Ctrl @ 10 μM (SLK). Here is the method: as §1

The target in assay [12] is T12, TAOK1 (Homo sapiens, UniProt Q7L7X3).
T12 construct: purchased Ambit Biosciences Cooperation, San Diego, USA (KINOMEscan service)
T12 sequence (Q7L7X3 whole entry): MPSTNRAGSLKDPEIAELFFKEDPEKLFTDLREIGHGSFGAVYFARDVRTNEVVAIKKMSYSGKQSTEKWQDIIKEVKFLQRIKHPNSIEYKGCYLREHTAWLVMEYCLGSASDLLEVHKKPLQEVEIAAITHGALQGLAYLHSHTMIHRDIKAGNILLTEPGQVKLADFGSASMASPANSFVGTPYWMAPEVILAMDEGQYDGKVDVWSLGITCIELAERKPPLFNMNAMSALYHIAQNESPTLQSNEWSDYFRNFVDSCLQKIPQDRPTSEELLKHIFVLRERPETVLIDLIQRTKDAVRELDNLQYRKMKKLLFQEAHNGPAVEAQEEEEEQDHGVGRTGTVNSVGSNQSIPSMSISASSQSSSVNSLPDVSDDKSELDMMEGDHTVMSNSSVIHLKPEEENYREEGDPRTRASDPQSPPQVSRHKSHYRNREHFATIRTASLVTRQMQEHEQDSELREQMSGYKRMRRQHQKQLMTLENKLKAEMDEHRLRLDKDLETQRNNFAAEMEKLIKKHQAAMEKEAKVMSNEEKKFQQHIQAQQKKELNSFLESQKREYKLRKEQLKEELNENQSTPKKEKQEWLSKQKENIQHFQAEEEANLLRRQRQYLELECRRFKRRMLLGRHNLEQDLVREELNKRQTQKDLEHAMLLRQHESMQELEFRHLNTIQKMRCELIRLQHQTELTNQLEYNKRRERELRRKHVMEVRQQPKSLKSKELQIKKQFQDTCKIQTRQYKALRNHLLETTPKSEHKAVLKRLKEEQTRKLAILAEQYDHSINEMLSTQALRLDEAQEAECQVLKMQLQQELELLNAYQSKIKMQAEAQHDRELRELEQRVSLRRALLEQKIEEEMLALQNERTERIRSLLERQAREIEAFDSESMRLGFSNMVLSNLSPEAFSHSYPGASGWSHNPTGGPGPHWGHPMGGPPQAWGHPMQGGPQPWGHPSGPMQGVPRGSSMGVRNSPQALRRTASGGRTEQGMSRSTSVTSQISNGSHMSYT
Description: KINOMEscan selectivity profiling. It is filed as binding. The settings on record: remaining relative to controls, read-out: %Ctrl @ 10 μM (TAOK1). On the procedure: as §1

Assay [13] has as its target T13, TAOK3 (Homo sapiens, UniProt Q9H2K8).
T13 construct: purchased Ambit Biosciences Cooperation, San Diego, USA (KINOMEscan service)
The assay is described as follows: KINOMEscan selectivity profiling. Format: binding. The settings on record: remaining relative to controls, read-out: %Ctrl @ 10 μM (TAOK3). On the procedure: as §1

T13 sequence (Q9H2K8 whole entry): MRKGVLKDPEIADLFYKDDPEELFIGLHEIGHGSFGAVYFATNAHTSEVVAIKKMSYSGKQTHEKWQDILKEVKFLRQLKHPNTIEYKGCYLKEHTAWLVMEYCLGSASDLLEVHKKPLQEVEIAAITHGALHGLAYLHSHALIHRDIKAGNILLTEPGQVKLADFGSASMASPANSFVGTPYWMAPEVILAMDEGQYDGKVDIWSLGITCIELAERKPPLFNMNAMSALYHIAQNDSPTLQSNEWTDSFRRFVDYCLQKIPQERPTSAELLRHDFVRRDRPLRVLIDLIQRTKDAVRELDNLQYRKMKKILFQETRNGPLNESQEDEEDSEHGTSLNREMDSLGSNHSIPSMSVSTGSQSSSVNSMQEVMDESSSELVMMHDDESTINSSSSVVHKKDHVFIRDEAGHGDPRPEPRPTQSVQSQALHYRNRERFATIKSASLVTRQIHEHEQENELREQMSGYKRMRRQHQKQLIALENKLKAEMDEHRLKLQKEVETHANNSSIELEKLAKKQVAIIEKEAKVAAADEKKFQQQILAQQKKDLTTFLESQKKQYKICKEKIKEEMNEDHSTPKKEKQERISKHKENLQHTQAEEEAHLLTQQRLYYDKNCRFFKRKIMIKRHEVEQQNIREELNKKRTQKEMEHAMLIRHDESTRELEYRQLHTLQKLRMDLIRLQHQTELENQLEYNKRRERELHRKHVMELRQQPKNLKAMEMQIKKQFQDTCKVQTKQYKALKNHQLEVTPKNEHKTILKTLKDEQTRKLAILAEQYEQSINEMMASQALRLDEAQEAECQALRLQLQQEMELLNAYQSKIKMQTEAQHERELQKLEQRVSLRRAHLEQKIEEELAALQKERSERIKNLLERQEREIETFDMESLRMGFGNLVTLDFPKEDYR
T4 sequence (Q9HAZ1 whole entry): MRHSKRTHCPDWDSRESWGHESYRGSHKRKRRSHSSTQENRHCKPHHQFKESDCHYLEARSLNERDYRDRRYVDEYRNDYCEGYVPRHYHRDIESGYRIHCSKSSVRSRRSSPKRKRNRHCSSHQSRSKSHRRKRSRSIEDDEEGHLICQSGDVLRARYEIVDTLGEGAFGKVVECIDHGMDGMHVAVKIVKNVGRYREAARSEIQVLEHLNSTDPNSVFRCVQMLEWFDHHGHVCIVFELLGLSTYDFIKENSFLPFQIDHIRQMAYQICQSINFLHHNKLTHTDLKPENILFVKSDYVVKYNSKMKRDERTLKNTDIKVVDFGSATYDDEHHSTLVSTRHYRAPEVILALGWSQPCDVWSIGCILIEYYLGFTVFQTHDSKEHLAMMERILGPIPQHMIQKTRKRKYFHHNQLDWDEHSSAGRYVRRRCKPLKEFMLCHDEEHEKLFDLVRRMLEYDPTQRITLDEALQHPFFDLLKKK

In turn, `O=C(Nc1nc2cc(Cl)c(F)cc2[nH]1)c1csc(NC(=O)c2ccccc2OC(F)(F)F)n1` [Compound 6, N-(5-Chloro-6-fluoro-1H-benzo[d]imidazol-2-yl)-2-(2-(trifluoromethoxy)benzamido)thiazole-4-carboxamide] yielded an IC50 in [1] (0.01 mM ATP, substrate GST-mouse p53^1-64, mean ± SD) of 0.085 ± 0.01 µM. Moreover, in assay [1], the “inhibition of CK1δkd in initial screen” value is “significant inhibition” and the mode of inhibition entry is on record as “ATP competitive inhibitors”. The “kinase activity of GST-CK1δ^M82F in comparison with inhibition of GST-wt CK1δ” value in [2] is “similarly or even less affected”.

As for `O=C(Nc1nc2ccc(C(F)(F)F)cc2[nH]1)c1csc(NC(=O)c2ccccc2OC(F)(F)F)n1` [Compound 5, 2-(2-(Trifluoromethoxy)benzamido)-N-(6-(trifluoromethyl)-1H-benzo[d]imidazol-2-yl)thiazole-4-carboxamide], the “inhibition of CK1δkd in initial screen” value in assay [1] is given as “significant inhibition”. Further, the mode of inhibition entry in assay [1] is listed as “ATP competitive inhibitors”. In addition, in [2], the “kinase activity of GST-CK1δ^M82F in comparison with inhibition of GST-wt CK1δ” value is reported as “much more affected”. The remaining binding at 10 µM in assay [3] was 10%; in assay [4], 7.2%; in assay [5], 3%; in assay [6] it was 2%; in assay [7], 4.1%; in assay [8], 6.6%. In addition, the remaining binding at 10 µM in assay [9] came out at 17%; in assay [10], 27%; in [11] it was 12%; in assay [12] it was 24%; in [13], 20%.
